Results as given in US8268778B2, “Flavivirus NS5A proteins for the treatment of HIV” (priority 2007, dated 2012).
Entries after “also recorded” stand apart in the source; their conditions may differ.

Experiments:
CD4 = assay type: cell-based, human
HIV-1 isolate (X4) [1] = assay type: cell-based
HIV-1 isolate (X4) [2] = assay: HIV replication (p24 antigen release) in Jurkat cell lines stably expressing NS5A proteins/peptides; assay type: cell-based; conditions: Jurkat cell lines stably expressing the protein/peptide vs vector and frame-shift controls
SDF-1 = assay type: cell-based, human
CXCR4 = assay type: cell-based, human
Jurkat cells = assay type: cell-based, human

Sequence | CD4 surface expression (CD4) | HIV replication (HIV-1 isolate (X4) [1]) | HIV replication (HIV p24 antigen release into culture supernatants) (HIV-1 isolate (X4) [2]) | SDF-1 release into culture supernatants (SDF-1) | CXCR4 surface expression (CXCR4) | CD4 mRNA regulation, in words (Jurkat cells) | regulation of Th2 cytokines, TNFα, and BCL2 mRNA (Jurkat cells)
DVIRAGPAWDSVAPAD [152-167scr, negative control, reference compound] | do not | Neither peptide inhibited HIV replication |  |  |  |  | 
VDGIPVAWDADARAPA (Hepatitis GB virus C) [S158A] | do not |  | inhibited HIV replication; also recorded: significantly less HIV replication than FS and VC |  |  |  | 
VDGIPVEWDADARAPA [S158E] | down-regulate CD4 |  | significantly inhibited; also recorded: significantly less HIV replication than all other cell lines | induced SDF-1 release | significantly less CXCR4 expressed |  | 
VDGIPVGWDADARAPA (Hepatitis GB virus C) [S158G] | do not |  | inhibited HIV replication; also recorded: significantly less HIV replication than FS and VC |  |  |  | 
VDGIPVSWDADARA (Hepatitis GB virus C) [152-165] |  |  | significantly reduced | induced |  |  | 
VDGIPVSWDADARAPA (Hepatitis GB virus C) [152-167] | down-regulate CD4 |  | significantly reduced |  |  | down-regulated | do not appear to be altered
